The text below walks through data of article PMC6217552, “Refining the structure−activity relationships of 2-phenylcyclopropane carboxylic acids as inhibitors of O-acetylserine sulfhydrylase isoforms” (Journal of Enzyme Inhibition and Medicinal Chemistry, 2018).

“And” between values parts separate entries of the source, which are not always exact repeats. Identical values can stand only once. Like-named read-outs stand apart in the source and are kept apart here.

In data set [1] the target is T1, StOASS-A (Salmonella typhimurium, UniProt P0A1E3).
T1 construct: made in house; host or cells: E. coli
T1 sequence (P0A1E3 whole entry): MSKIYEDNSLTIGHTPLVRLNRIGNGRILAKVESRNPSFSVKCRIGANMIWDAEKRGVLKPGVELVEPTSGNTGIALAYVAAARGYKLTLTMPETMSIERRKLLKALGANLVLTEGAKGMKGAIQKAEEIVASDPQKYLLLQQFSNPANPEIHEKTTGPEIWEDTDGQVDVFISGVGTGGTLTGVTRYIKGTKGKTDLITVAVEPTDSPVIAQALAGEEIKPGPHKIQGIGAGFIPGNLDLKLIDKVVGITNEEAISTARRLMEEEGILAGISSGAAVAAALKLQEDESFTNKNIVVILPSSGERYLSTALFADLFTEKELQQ
Briefly: Direct fluorimetric titration of PLP cofactor fluorescence (dissociation constant). Format: binding, Salmonella enterica serovar Typhimurium. Particulars: 100 mM HEPES pH 7.0, 1% DMSO, 20 °C; read-out: OASS-A Kd. The method, then:
(§1) StOASS-A and StOASS-B, expressed in E. coli, were purified by metal affinity chromatography as described previously. Proteins were more that 95% pure based on SDS-PAGE analysis (data not shown).
(§2) Ligand affinity was measured by direct fluorimetric titrations, monitoring the fluorescence emission spectrum of cofactor PLP upon excitation at 412 nm. 0.1–1 µM OASS was titrated by increasing concentrations of ligand in 100 mM HEPES pH 7.0, 1% DMSO, at 20 °C. The dependence of fluorescence emission intensity on the concentration of compound was fitted to a binding isotherm: I=I0+ΔI·[ligand]/Kd+[ligand] where, I is the fluorescence emission intensity at a given ligand concentration, I 0 is the fluorescence emission intensity in the absence of ligand, ΔI is the amplitude and K d is the dissociation constant. When the K d was lower than the concentration of the protein used in the assay, the dependence of the fluoresecnce emission intensity on ligand concentration was fitted to a quadratic equation that describes tight binding. The fluorescence competitive binding assay, described elsewhere, was used to evaluate whether compounds bind at the active site of the enzyme or to an allosteric site. The assay is based on the formation of a low-affinity, highly fluorescent complex between OASS and 1-ethylcyclopropane-1,2-dicarboxylic acid. Binding of a higher affinity compound to the active site displaces 1-ethylcyclopropane-1,2-dicarboxylic acid and leads to a decrease in the fluorescence emission intensity.

Data set [2] addresses T2, StOASS-B (Salmonella typhimurium, UniProt P29848).
T2 construct: made in house; host or cells: E. coli
T2 sequence (P29848 1-303): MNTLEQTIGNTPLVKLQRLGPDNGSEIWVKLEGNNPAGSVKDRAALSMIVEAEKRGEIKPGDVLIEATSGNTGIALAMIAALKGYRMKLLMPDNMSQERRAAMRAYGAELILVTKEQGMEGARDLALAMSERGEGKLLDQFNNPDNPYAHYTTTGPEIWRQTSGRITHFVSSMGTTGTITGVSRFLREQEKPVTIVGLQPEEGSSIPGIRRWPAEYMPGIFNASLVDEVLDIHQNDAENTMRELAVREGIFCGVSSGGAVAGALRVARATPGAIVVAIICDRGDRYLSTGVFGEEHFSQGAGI
The description is as above. Format: binding. As for the experimental part:
as §1, §2

In another data set the test system is E.coli. Also on record: method as in manuscript in preparation. The following applies: ref manuscript in preparation, cited from earlier work.
In data set [3] the target is T1, StOASS-A. The data set is described as follows: Steady-state enzyme activity assay, discontinuous ninhydrin cysteine determination. Format: biochemical, Salmonella enterica serovar Typhimurium. Particulars: 1 mM OAS, 0.6 mM Na2S, 6 nM OASS, 100 mM HEPES pH 7.0, 1% DMSO. As for the experimental part:
as §1
(§3) Enzyme activity under steady-state conditions was measured by a discontinuous method as described previously. Briefly, the reaction was carried out in 100 mM HEPES pH 7.0 in the presence of 6 nM OASS, 60 nM BSA to prevent enzyme adhesion to tube wall, 1 mM OAS (equal to the K m value of this subsrate), 0.6 mM Na2S (a saturating concentration), 1% DMSO and variable concentrations of inhibitor. Reaction was stopped at time intervals by the addition of acetic acid and concentration of cysteine was determined by a modification of the ninhydrin assay. The fractional velocity as a function of inhibitor concentration was determined and IC50 was calculated by the following equation: vi/v0=1/1+(I/IC50) where, v 0 is the reaction velocity in the absence of inhibitor and v i is reaction velocity in the presence of inhibitor at concentration [I].
(§4) For a competitive inhibitor against OAS the IC50 measured under these conditions is about 2⋅K d.

Data set [4] deals with T2, StOASS-B. The description is as above. Type of data set: biochemical. The method, then: as §1, §3, §4
For data set [5], the system named is Escherichia coli ATCC25922. The data set is described as follows: Minimal inhibitory concentration (CLSI) in medium with limiting cysteine. Format: cell-based. Particulars: E. coli ATCC25922, medium with limiting cysteine; data not shown. The method, then:
Minimal inhibitory concentration assays were performed according to the CLSI guidelines (Clinical and Laboratory Standards Institute; Performance Standards for Antimicrobial Susceptibility Testing; Twenty-Fourth Informational Supplement; CLSI document M100-S24, CLSI; 2014.). The compounds were dissolved in DMSO to obtain a stock solution 100-fold more concentrated than the desired higher concentration and then 10 serial dilutions were performed. One microliter of each dilution was transferred to the microtiter plate.
Escherichia coli ATCC25922 was grown until log phase on liquid Mueller–Hinton broth at 37 °C in a shaker at 225 rpm. Bacterial suspension was then centrifuged at 2500 rpm for 15 min and diluted with phosphate buffer to obtain a solution with a turbidity of about 0.5 McFarland. Bacterial suspension was further diluted (1:100) with fresh LB 20%. Fifty microliters of the bacterial suspension containing 10^6 CFU/mL were inoculated into each well, to obtain a final concentration of 5 × 10^5 CFU/mL. Each plate contained growth control wells and sterility check wells.
We investigated the ability of the new set of compounds to interfere with bacterial growth.

For the compound `Cc1ccc(C[C@@]2(C(=O)O)C[C@H]2c2ccccc2)cc1` [II, reference compound], the results for the Kd on StOASS-A [1] and at StOASS-B [2] were 0.03 ± 0.01 µM and 0.5 ± 0.1 µM, respectively. In addition, the “Inhibitory activity on cell growth” value in the data set with E.coli (E.coli, minimal medium) is recorded as “failed to show appreciable inhibitory activity on cell growth”. Further, in the data set on E.coli (co-administration of sub-lethal concentrations of polymyxin B nonapeptide (PMBN)), the “MIC with permeabilizing agent” value is recorded as “led to a measurable MIC”.
`O=C(O)C1(Cn2cccn2)CC1c1ccccc1` (centres unmarked) [Compound 48, 1-((1H-pyrazol-1-yl)methyl)-2-phenylcyclopropane-1-carboxylic acid]: the figures for the Kd on StOASS-A [1] and at StOASS-B [2] were 1.5 ± 0.2 µM and 96 ± 7 µM, respectively.
In the same order, the values of `O=C(O)C1(Cn2cccc2)CC1c1ccccc1` (centres unmarked) [Compound 49, 1-((1H-pyrrol-1-yl)methyl)-2-phenylcyclopropane-1-carboxylic acid] are 0.5 ± 0.1 µM and 22 ± 2 µM.
On to `Cc1ccc(CC2(C(=O)O)CC2c2ccc([N+](=O)[O-])cc2)cc1` (centres unmarked) [Compound 8, 1-(4-methylbenzyl)-2-(4-nitrophenyl)cyclopropane-1-carboxylic acid], for which the dissociation constant (Kd) came to 61 ± 6 µM on StOASS-A [1] and 145 ± 2 µM at StOASS-B [2].
Consider `C#CCNC(=O)[C@@]1(Cc2ccc(C)cc2)C[C@H]1c1ccccc1` [Compound 21, (1R,2S)-1-(4-methylbenzyl)-2-phenyl-N-(prop-2-yn-1-yl)cyclopropane-1-carboxamide], for which the IC50 against StOASS-A [3] and at StOASS-B [4] was above 100 µM in each case.
For the compound `Cc1ccc(C[C@]2(C(=O)N(C)C3CCOCC3)C[C@H]2c2ccccc2)cc1` [Compound 16, (1R,2S)-1-N-methyl-1-(4-methylbenzyl)-2-phenyl-N-(tetrahydro-2H-pyran-4-yl)cyclopropane-1-carboxamide], the IC50 on StOASS-A [3] is 17.2 µM and 17 µM; at StOASS-B [4] it was 137 ± 10 µM. Moreover, the “Interference with bacterial growth (MIC)” value in data set [5] was “none of the synthesised compounds was able to interfere significantly with bacterial growth”.
Take `O=C(O)C1(Cn2cncn2)CC1c1ccccc1` (centres unmarked) [Compound 50, 1-((1H-1,2,4-triazol-1-yl)methyl)-2-phenylcyclopropane-1-carboxylic acid]: the Kd is 18 ± 5 µM on StOASS-A [1] and 250 ± 14 µM at StOASS-B [2].
As to `Cc1ccc(C[C@]2(C(=O)NCc3ccccc3)C[C@H]2c2ccccc2)cc1` [Compound 18, (1R,2S)-1-N-benzyl-1-(4-methylbenzyl)-2-phenylcyclopropane-1-carboxamide], the IC50 was above 100 µM against StOASS-A [3] and above 100 µM on StOASS-B [4] (read-out: OASS-B IC50, 1 mM OAS, 0.6 mM Na2S, 6 nM OASS, 100 mM HEPES pH 7.0, 1% DMSO).
As for `Cc1ccc(C[C@]2(C(=O)NCc3nccn3C)C[C@H]2c2ccccc2)cc1` [Compound 20, (1R,2S)-1-N-((1-methyl-1H-imidazol-2-yl)methyl)-1-(4-methylbenzyl)-2-phenylcyclopropane-1-carboxamide], the IC50 against StOASS-A [3] and on StOASS-B [4] was above 100 µM throughout.
For the compound `CCN1CCCC1CNC(=O)[C@@]1(Cc2ccc(C)cc2)C[C@H]1c1ccccc1` (stereo partly drawn) [Compound 17, (1R,2S)-1-N-((1-ethylpyrrolidin-2-yl)methyl)-1-(4-methylbenzyl)-2-phenylcyclopropane-1-carboxamide], the IC50 against StOASS-A [3] and on StOASS-B [4] was above 100 µM each time.
On to `Cc1ccc(CC2(C(=O)O)CC2c2ccc(CNC(C)C)cc2)cc1` (centres unmarked) [Compound 10, 2-(4-((isopropylamino)methyl)phenyl)-1-(4-methylbenzyl)cyclopropane-1-carboxylic acid], for which, at StOASS-A [1], the Kd was 155 ± 5 µM.
Regarding `Cc1ccc(C[C@]2(C(=O)NCc3cccs3)C[C@H]2c2ccccc2)cc1` [Compound 19, (1R,2S)-1-(4-methylbenzyl)-2-phenyl-N-(thiophen-2-ylmethyl)cyclopropane-1-carboxamide], the IC50 against StOASS-A [3] and against StOASS-B [4] was above 100 µM each time.
`Cc1ccc(CC2(C(=O)O)CC2c2ccc(N)cc2)cc1` (centres unmarked) [Compound 12, 2-(4-aminophenyl)-1-(4-methylbenzyl)cyclopropane-1-carboxylic acid]: the equilibrium dissociation constant (Kd) at StOASS-A [1] is 1.4 ± 0.3 µM; at StOASS-B [2], 5.7 ± 0.7 µM. For the same compound, in data set [5], the “Interference with bacterial growth (MIC)” value was “none of the synthesised compounds was able to interfere significantly with bacterial growth”.
On the same counts, the results for `O=C(O)C1(Cc2ccncc2)CC1c1ccccc1` (centres unmarked) [Compound 33, 2-phenyl-1-(pyridin-4-ylmethyl)cyclopropane-1-carboxylic acid] are 24 ± 2 µM, 275 ± 42 µM and “none of the synthesised compounds was able to interfere significantly with bacterial growth”.
As to `O=C(O)C1(Cn2ccnc2)CC1c1ccccc1` (centres unmarked) [Compound 47, 1-((1H-imidazol-1-yl)methyl)-2-phenylcyclopropane-1-carboxylic acid], the Kd on StOASS-A [1] came out at 7.6 ± 0.5 µM; on StOASS-B [2], 397 ± 42 µM.
Turning to `N#C[C@@]1(Cc2ccccc2)C[C@H]1c1ccccc1` [Compound 28, (1R,2S)-1-benzyl-2-phenylcyclopropanecarbonitrile], on StOASS-A [3], the IC50 is above 250 µM.
On to `c1ccc(C[C@]2(c3nnn[nH]3)C[C@H]2c2ccccc2)cc1` [Compound 29, (1R,2S)-5-(1-benzyl-2-phenylcyclopropyl)-1H-tetrazole], for which, at StOASS-A [1], the Kd amounted to 90 ± 14 µM.
As for `Cc1ccc(C[C@]2(C(=O)NCC3CCCO3)C[C@H]2c2ccccc2)cc1` (stereo partly drawn) [Compound 22, (1R,2S)-1-(4-methylbenzyl)-2-phenyl-N-((tetrahydrofuran-2-yl)methyl)cyclopropane-1-carboxamide], the IC50 against StOASS-A [3] and at StOASS-B [4] was above 100 µM in each case.
Turning to “1-(4-methylbenzyl)-2-(pyridin-4-yl)cyclopropane-1-carboxylic acid [Compound 5]”, the Kd on StOASS-A [1] was found to be 0.4 ± 0.1 µM; on StOASS-B [2] (100 mM HEPES pH 7.0, 1% DMSO, 20 °C, read-out: OASS-B Kd), 6.1 ± 0.5 µM. Further, in data set [5], the “Interference with bacterial growth (MIC)” value is “none of the synthesised compounds was able to interfere significantly with bacterial growth”.
